Laboratory results published in patent US7396837B2, “Antitumoral analogs of lamellarins” (Pharma Mar, S.A.U., priority 2002, dated 2008).
Read-outs that look alike come from different tables or passages of the source.

Legend:
Assay type in all cases: cell-based
[1] = system: IGROV-ET; assay: SRB colorimetric cell growth inhibition assay, IGROV-ET (ET-743 resistant); details: IGROV-ET; for GI50: GI=growth inhibition, read-out: GI50 IGROV-ET; for CC50: cell killing (cytotoxic effect), read-out: LC50 IGROV-ET
In short: (§1)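 Cells are kept under uninterrupted exposure to compound. Staining with sulforhodamine B then measures cell growth and viability. Triplicate data give mean ± SD, from which growth inhibition, total growth inhibition and lethal concentration values follow.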

[2] = system: PANC-1; assay: SRB colorimetric cell growth inhibition assay, PANC-1; details: for GI50: GI=growth inhibition, read-out: GI50 PANC-1; for CC50: cell killing (cytotoxic effect), read-out: LC50 PANC-1
In short: as §1

[3] = system: LoVo-Dox; assay: SRB colorimetric cell growth inhibition assay, LoVo-Dox (MDR); details: LOVO-DOX; for GI50: GI=growth inhibition, read-out: GI50 LOVO-DOX; for CC50: cell killing (cytotoxic effect), read-out: LC50 LOVO-DOX
In short: as §1

[4] = system: SK-BR-3; assay: SRB colorimetric cell growth inhibition assay, SK-BR-3; details: for GI50: GI=growth inhibition, read-out: GI50 SK-BR-3; for CC50: cell killing (cytotoxic effect), read-out: LC50 SK-BR-3
In short: as §1

[5] = system: A-549; assay: SRB colorimetric cell growth inhibition assay, A-549; details: for GI50: GI=growth inhibition, read-out: GI50 A-549; for CC50: cell killing (cytotoxic effect), read-out: LC50 A-549
In short: as §1

[6] = system: HeLa-APL; assay: SRB colorimetric cell growth inhibition assay, HeLa-APL (aplidine resistant); details: HELA-APL; for GI50: GI=growth inhibition, read-out: GI50 HELA-APL; for CC50: cell killing (cytotoxic effect), read-out: LC50 HELA-APL
In short: as §1

[7] = system: IGROV; assay: SRB colorimetric cell growth inhibition assay, IGROV; details: IGROV; for GI50: GI=growth inhibition, read-out: GI50 IGROV; for CC50: cell killing (cytotoxic effect), read-out: LC50 IGROV
In short: as §1

[8] = system: K-562; assay: SRB colorimetric cell growth inhibition assay, K-562; details: for GI50: GI=growth inhibition, read-out: GI50 K-562; for CC50: cell killing (cytotoxic effect), read-out: LC50 K-562
In short: as §1

[9] = system: LNCaP; assay: SRB colorimetric cell growth inhibition assay, LNCaP; details: LN-caP; for GI50: GI=growth inhibition, read-out: GI50 LN-caP; for CC50: cell killing (cytotoxic effect), read-out: LC50 LN-caP
In short: as §1

[10] = system: HT-29; assay: SRB colorimetric cell growth inhibition assay, HT-29; details: for GI50: GI=growth inhibition, read-out: GI50 HT-29; for CC50: cell killing (cytotoxic effect), read-out: LC50 HT-29
In short: as §1

[11] = system: SK-MEL-28; assay: SRB colorimetric cell growth inhibition assay, SK-MEL-28; details: for GI50: GI=growth inhibition, read-out: GI50 MEL-28; for CC50: cell killing (cytotoxic effect), read-out: LC50 MEL-28
In short: as §1

[12] = system: HeLa; assay: SRB colorimetric cell growth inhibition assay, HeLa; details: for GI50: GI=growth inhibition, read-out: GI50 HELA; for CC50: cell killing (cytotoxic effect), read-out: LC50 HELA
In short: as §1

[13] = system: LoVo; assay: SRB colorimetric cell growth inhibition assay, LoVo; details: for GI50: GI=growth inhibition, read-out: GI50 LOVO; for CC50: cell killing (cytotoxic effect), read-out: LC50 LOVO
In short: as §1

[14] = system: DU-145; assay: SRB colorimetric cell growth inhibition assay, DU-145; details: for GI50: GI=growth inhibition, read-out: GI50 DU-145; for CC50: cell killing (cytotoxic effect), read-out: LC50 DU-145
In short: as §1

[15] = Homo sapiens, SK-MEL-28, MEL-28
[16] = total growth inhibition (cytostatic effect)

SMILES: COc1cc2ccn3c(c(-c4ccc(OC(=O)[C@@H](NC(=O)OC(C)(C)C)C(C)C)c(OC)c4)c4c5cc(OC)c(OC(=O)[C@@H](NC(=O)OC(C)(C)C)C(C)C)cc5oc(=O)c43)c2cc1OC [Compound 15]
- GI50 ([1]; Homo sapiens): 6870 nM
- CC50 ([1]; Homo sapiens): 11000 nM
- IC (TGI) ([1]; Homo sapiens, total growth inhibition (cytostatic effect), read-out: TGI IGROV-ET): 11000 nM
- GI50 ([2]; Homo sapiens, PANC-1, PANC-1): 1540 nM
- CC50 ([2]; Homo sapiens, PANC-1, PANC-1): 11000 nM
- IC (TGI) ([2]; Homo sapiens, PANC-1, PANC-1, total growth inhibition (cytostatic effect), read-out: TGI PANC-1): 5260 nM
- GI50 ([3]; Homo sapiens): 11000 nM
- CC50 ([3]; Homo sapiens): 11000 nM
- IC (TGI) ([3]; Homo sapiens, total growth inhibition (cytostatic effect), read-out: TGI LOVO-DOX): 11000 nM
- GI50 ([4]; Homo sapiens, SK-BR-3, SK-BR-3): 56.1 nM
- CC50 ([4]; Homo sapiens, SK-BR-3, SK-BR-3): 5840 nM
- IC (TGI) ([4]; Homo sapiens, SK-BR-3, SK-BR-3, total growth inhibition (cytostatic effect), read-out: TGI SK-BR-3): 635 nM
- GI50 ([5]; Homo sapiens, A549, A-549): 54.1 nM
- CC50 ([5]; Homo sapiens, A549, A-549): 11000 nM
- IC (TGI) ([5]; Homo sapiens, A549, A-549, total growth inhibition (cytostatic effect), read-out: TGI A-549): 1460 nM
- GI50 ([6]; Homo sapiens): 2430 nM
- CC50 ([6]; Homo sapiens): 11000 nM
- IC (TGI) ([6]; Homo sapiens, total growth inhibition (cytostatic effect), read-out: TGI HELA-APL): 5530 nM
- GI50 ([7]; Homo sapiens): 86.2 nM
- CC50 ([7]; Homo sapiens): 9760 nM
- IC (TGI) ([7]; Homo sapiens, total growth inhibition (cytostatic effect), read-out: TGI IGROV): 2030 nM
- GI50 ([8]; Homo sapiens, K562, K-562): 1600 nM
- CC50 ([8]; Homo sapiens, K562, K-562): 9570 nM
- IC (TGI) ([8]; Homo sapiens, K562, K-562, total growth inhibition (cytostatic effect), read-out: TGI K-562): 3910 nM
- GI50 ([9]; Homo sapiens, LNCaP): 56 nM
- CC50 ([9]; Homo sapiens, LNCaP): 3930 nM
- IC (TGI) ([9]; Homo sapiens, LNCaP, total growth inhibition (cytostatic effect), read-out: TGI LN-caP): 609 nM
- GI50 ([10]; Homo sapiens, HT-29, HT-29): 47.3 nM
- CC50 ([10]; Homo sapiens, HT-29, HT-29): 9170 nM
- IC (TGI) ([10]; Homo sapiens, HT-29, HT-29, total growth inhibition (cytostatic effect), read-out: TGI HT-29): 111 nM
- GI50 [11, 15]: 48.2 nM
- CC50 [11, 15]: 7240 nM
- IC (TGI) ([11]; Homo sapiens, SK-MEL-28, MEL-28, total growth inhibition (cytostatic effect), read-out: TGI MEL-28): 1640 nM
- GI50 ([12]; Homo sapiens, HeLa): 57.9 nM
- CC50 ([12]; Homo sapiens, HeLa): 7810 nM
- IC (TGI) ([12]; Homo sapiens, HeLa, total growth inhibition (cytostatic effect), read-out: TGI HELA): 1410 nM
- GI50 ([13]; Homo sapiens, LoVo): 1680 nM
- CC50 ([13]; Homo sapiens, LoVo): 11000 nM
- IC (TGI) ([13]; Homo sapiens, LoVo, total growth inhibition (cytostatic effect), read-out: TGI LOVO): 4960 nM
- GI50 ([14]; Homo sapiens, DU-145, DU-145): 68.5 nM
- CC50 ([14]; Homo sapiens, DU-145, DU-145): 11000 nM
- IC (TGI) ([14]; Homo sapiens, DU-145, DU-145, total growth inhibition (cytostatic effect), read-out: TGI DU-145): 3080 nM

SMILES: COc1cc(-c2c3c4cc(OC)c(OC(=O)[C@H](C)N)cc4oc(=O)c3n3ccc4c(OC(=O)[C@H](C)N)c(OC)c(OC)cc4c23)ccc1OC(=O)[C@H](C)N [Compound 16]
- GI50 [1]: 278 nM
- CC50 [1]: 897 nM
- TGI IGROV-ET [1, 16]: 5.00E−07 Molar
- GI50 ([2]; PANC-1): 241 nM
- CC50 ([2]; PANC-1): 3340 nM
- TGI PANC-1 ([2]; PANC-1, total growth inhibition (cytostatic effect)): 7.56E−07 Molar
- GI50 ([3]; Homo sapiens): 420 nM
- CC50 [3]: 4420 nM
- TGI LOVO-DOX [3, 16]: 1.03E−06 Molar
- GI50 ([4]; SK-BR-3): 207 nM
- CC50 ([4]; SK-BR-3): 816 nM
- TGI SK-BR-3 ([4]; SK-BR-3, total growth inhibition (cytostatic effect)): 4.11E−07 Molar
- GI50 ([5]; A-549): 178 nM
- CC50 ([5]; A-549): 3050 nM
- TGI A-549 ([5]; A-549, total growth inhibition (cytostatic effect)): 5.02E−07 Molar
- GI50 [6]: 229 nM
- CC50 [6]: 2380 nM
- TGI HELA-APL [6, 16]: 5.20E−07 Molar
- GI50 [7]: 226 nM
- CC50 [7]: 1590 nM
- TGI IGROV [7, 16]: 4.78E−07 Molar
- GI50 ([8]; Homo sapiens, K562, K-562): 183 nM
- CC50 ([8]; K-562): 2230 nM
- TGI K-562 ([8]; K-562, total growth inhibition (cytostatic effect)): 4.45E−07 Molar
- GI50 [9]: 131 nM
- CC50 [9]: 534 nM
- TGI LN-caP [9, 16]: 2.65E−07 Molar
- GI50 ([10]; HT-29): 411 nM
- CC50 ([10]; HT-29): 5000 nM
- TGI HT-29 ([10]; HT-29, total growth inhibition (cytostatic effect)): 9.31E−07 Molar
- GI50 ([11]; MEL-28): 138 nM
- CC50 ([11]; MEL-28): 669 nM
- TGI MEL-28 ([11]; MEL-28, total growth inhibition (cytostatic effect)): 3.04E−07 Molar
- GI50 ([12]; HELA): 193 nM
- CC50 ([12]; HELA): 703 nM
- TGI HELA ([12]; HELA, total growth inhibition (cytostatic effect)): 3.68E−07 Molar
- GI50 ([13]; LOVO): 196 nM
- CC50 ([13]; LOVO): 612 nM
- TGI LOVO ([13]; LOVO, total growth inhibition (cytostatic effect)): 3.47E−07 Molar
- GI50 ([14]; DU-145): 52.7 nM
- CC50 ([14]; DU-145): 2800 nM
- TGI DU-145 ([14]; DU-145, total growth inhibition (cytostatic effect)): 2.98E−07 Molar
